We go through 7 cell lines from the supplement of paper PMC10307832.

Common to all, as to assay: relative viability (nuclei count vs DMSO), 5 days (fraction); higher = more cells survive
Compound in experiment [1]: CC(C)CCN1c2nc(Nc3cc(F)c(O)c(F)c3)ncc2N(C)C(=O)C1C [BI-D1870] + CCNC(=O)c1noc(-c2cc(C(C)C)c(O)cc2O)c1-c1ccc(CN2CCOCC2)cc1 [Luminespib] (partner 0.01 µM)
In short, it runs like this:
(§1)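 After 5 days of treatment, lung cancer cells in 1536-well plates were fixed and stained in a single step (final 0.05% Triton X-100, 1% formaldehyde, 1 ug/ml Hoechst) and their nuclei counted on 4× images. Treatment had been applied by pin tool the day after seeding as one drug alone or as a fixed anchor-drug dose with five library-drug doses (not always all listed) in √10 steps. Relative viability is the nuclei count of treated wells divided by that of vehicle wells, and values are medians of duplicate plates.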

Compound in experiment [2]: CC(C)CCN1c2nc(Nc3cc(F)c(O)c(F)c3)ncc2N(C)C(=O)C1C [BI-D1870] + C[C@@H](Oc1cc(-c2cnn(C3CCNCC3)c2)cnc1N)c1c(Cl)ccc(F)c1Cl [Crizotinib] (partner 1 µM)
In short, it runs like this: as §1

Compound in experiment [3]: CC(C)CCN1c2nc(Nc3cc(F)c(O)c(F)c3)ncc2N(C)C(=O)C1C [BI-D1870] + Nc1nc2[nH]cc(CCc3ccc(C(=O)N[C@@H](CCC(=O)O)C(=O)O)cc3)c2c(=O)[nH]1 [Pemetrexed] (partner 0.2 µM)
In short, it runs like this:
as §1

Compound in experiment [4]: O=c1ncccn1[C@@H]1O[C@H](CO)[C@@H](O)[C@H]1O [Zebularine] + COc1cccc2cc(-c3nc([C@H]4CC[C@H](C(=O)O)CC4)n4ncnc(N)c34)[nH]c12 [OSI-027] (partner 0.5 µM)
In a few lines: as §1

With NCI-H2087, the relative viability is 0.165 in experiment [1] (first compound 0.04 µM); 0.18 in experiment [1] (first compound 0.1265 µM); 0.206 in experiment [1] (first compound 0.4 µM); 0.213 in experiment [1] (first compound 1.265 µM); 0.186 in experiment [1] (first compound 4 µM); 0.918 in experiment [2] (first compound 0.04 µM). Besides, the relative viability in experiment [2] (first compound 0.1265 µM) came to 0.914; in experiment [2] (first compound 0.4 µM), 1; in experiment [2] (first compound 1.265 µM), 1.11; in experiment [2] (first compound 4 µM), 0.739; in experiment [3] (first compound 0.04 µM) it was 0.697; in experiment [3] (first compound 0.1265 µM) it was 0.671. In addition, the relative viability is 0.75 in experiment [3] (first compound 0.4 µM); 0.71 in experiment [3] (first compound 1.265 µM); 0.703 in experiment [3] (first compound 4 µM); 0.379 in experiment [4] (first compound 1 µM); 0.457 in experiment [4] (first compound 3.162 µM); 0.286 in experiment [4] (first compound 10 µM). Moreover, the relative viability turned out to be 0.508 in experiment [4] (first compound 31.62 µM) and 0.27 in experiment [4] (first compound 100 µM).
On to NCI-H2126, for which the relative viability came out at 0.899 in experiment [1] (first compound 0.04 µM); 0.767 in experiment [1] (first compound 0.1265 µM); 0.866 in experiment [1] (first compound 0.4 µM); 0.915 in experiment [1] (first compound 1.265 µM); 0.769 in experiment [1] (first compound 4 µM); 1.09 in experiment [2] (first compound 0.04 µM). Besides, the relative viability in experiment [2] (first compound 0.1265 µM) was determined as 1.07; in experiment [2] (first compound 0.4 µM) it was 0.994; in experiment [2] (first compound 1.265 µM), 1.04; in experiment [2] (first compound 4 µM), 1.01; in experiment [3] (first compound 0.04 µM), 0.694; in experiment [3] (first compound 0.1265 µM), 0.726. For the same cell line, the relative viability turned out to be 0.649 in experiment [3] (first compound 0.4 µM); 0.744 in experiment [3] (first compound 1.265 µM); 0.552 in experiment [3] (first compound 4 µM); 0.721 in experiment [4] (first compound 1 µM); 0.718 in experiment [4] (first compound 3.162 µM); 0.619 in experiment [4] (first compound 10 µM). Further, the relative viability in experiment [4] (first compound 31.62 µM) turned out to be 0.8; in experiment [4] (first compound 100 µM), 0.602.
As for NCI-H2170, the relative viability in experiment [1] (first compound 0.04 µM) was found to be 0.817; in experiment [1] (first compound 0.1265 µM) it was 0.723; in experiment [1] (first compound 0.4 µM) it was 0.751; in experiment [1] (first compound 1.265 µM), 0.65; in experiment [1] (first compound 4 µM), 0.67; in experiment [2] (first compound 0.04 µM) it was 1.31. For the same cell line, the relative viability is 1.06 in experiment [2] (first compound 0.1265 µM); 1.24 in experiment [2] (first compound 0.4 µM); 1.24 in experiment [2] (first compound 1.265 µM); 1.06 in experiment [2] (first compound 4 µM); 0.299 in experiment [3] (first compound 0.04 µM); 0.269 in experiment [3] (first compound 0.1265 µM). Besides, the relative viability in experiment [3] (first compound 0.4 µM) was determined as 0.261; in experiment [3] (first compound 1.265 µM) it was 0.249; in experiment [3] (first compound 4 µM), 0.403; in experiment [4] (first compound 1 µM) it was 0.86; in experiment [4] (first compound 3.162 µM), 0.63; in experiment [4] (first compound 10 µM), 0.569. Further, the figures for the relative viability in experiment [4] (first compound 31.62 µM) and in experiment [4] (first compound 100 µM) were 0.678 and 0.432, respectively.
NCI-H2228: the relative viability in experiment [1] (first compound 0.04 µM) turned out to be 0.142; in experiment [1] (first compound 0.1265 µM), 0.131; in experiment [1] (first compound 0.4 µM), 0.146; in experiment [1] (first compound 1.265 µM), 0.157; in experiment [1] (first compound 4 µM), 0.127; in experiment [2] (first compound 0.04 µM), 0.645. For the same cell line, the relative viability in experiment [2] (first compound 0.1265 µM) stood at 0.479; in experiment [2] (first compound 0.4 µM) it was 0.374; in experiment [2] (first compound 1.265 µM), 0.435; in experiment [2] (first compound 4 µM) it was 0.329; in experiment [3] (first compound 0.04 µM), 0.33; in experiment [3] (first compound 0.1265 µM), 0.345. Also, the relative viability in experiment [3] (first compound 0.4 µM) is 0.349; in experiment [3] (first compound 1.265 µM), 0.353; in experiment [3] (first compound 4 µM), 0.195; in experiment [4] (first compound 1 µM), 0.604; in experiment [4] (first compound 3.162 µM), 0.514; in experiment [4] (first compound 10 µM) it was 0.284. Moreover, the relative viability in experiment [4] (first compound 31.62 µM) came out at 0.607; in experiment [4] (first compound 100 µM), 0.275.
On to NCI-H2347, for which the relative viability came to 0.738 in experiment [1] (first compound 0.04 µM); 0.376 in experiment [1] (first compound 0.1265 µM); 0.367 in experiment [1] (first compound 0.4 µM); 0.48 in experiment [1] (first compound 1.265 µM); 0.402 in experiment [1] (first compound 4 µM); 0.812 in experiment [2] (first compound 0.04 µM). Moreover, the relative viability in experiment [2] (first compound 0.1265 µM) came to 0.674; in experiment [2] (first compound 0.4 µM), 0.7; in experiment [2] (first compound 1.265 µM), 0.662; in experiment [2] (first compound 4 µM), 0.577; in experiment [3] (first compound 0.04 µM) it was 0.515; in experiment [3] (first compound 0.1265 µM), 0.443. Moreover, the relative viability in experiment [3] (first compound 0.4 µM) was found to be 0.427; in experiment [3] (first compound 1.265 µM), 0.438; in experiment [3] (first compound 4 µM), 0.393; in experiment [4] (first compound 1 µM), 0.444; in experiment [4] (first compound 3.162 µM), 0.412; in experiment [4] (first compound 10 µM) it was 0.443. In addition, the relative viability in experiment [4] (first compound 31.62 µM) came out at 0.424; in experiment [4] (first compound 100 µM), 0.393.
Regarding NCI-H2405, the relative viability came to 0.711 in experiment [1] (first compound 0.04 µM); 0.577 in experiment [1] (first compound 0.1265 µM); 0.68 in experiment [1] (first compound 0.4 µM); 0.883 in experiment [1] (first compound 1.265 µM); 0.54 in experiment [1] (first compound 4 µM); 0.952 in experiment [2] (first compound 0.04 µM). Further, the relative viability in experiment [2] (first compound 0.1265 µM) is 0.863; in experiment [2] (first compound 0.4 µM) it was 0.836; in experiment [2] (first compound 1.265 µM), 0.94; in experiment [2] (first compound 4 µM), 0.795; in experiment [3] (first compound 0.04 µM), 1.2; in experiment [3] (first compound 0.1265 µM), 1.01. In addition, the relative viability came to 1 in experiment [3] (first compound 0.4 µM); 1.04 in experiment [3] (first compound 1.265 µM); 0.796 in experiment [3] (first compound 4 µM); 0.672 in experiment [4] (first compound 1 µM); 0.597 in experiment [4] (first compound 3.162 µM); 0.592 in experiment [4] (first compound 10 µM). The relative viability in experiment [4] (first compound 31.62 µM) turned out to be 0.676; in experiment [4] (first compound 100 µM), 0.547.
Regarding NCI-H3122, the relative viability was 0.0791 in experiment [1] (first compound 0.04 µM); 0.0919 in experiment [1] (first compound 0.1265 µM); 0.0942 in experiment [1] (first compound 0.4 µM); 0.11 in experiment [1] (first compound 1.265 µM); 0.124 in experiment [1] (first compound 4 µM); 0.283 in experiment [2] (first compound 0.04 µM). Further, the relative viability in experiment [2] (first compound 0.1265 µM) is 0.275; in experiment [2] (first compound 0.4 µM), 0.293; in experiment [2] (first compound 1.265 µM) it was 0.28; in experiment [2] (first compound 4 µM) it was 0.325; in experiment [3] (first compound 0.04 µM) it was 0.187; in experiment [3] (first compound 0.1265 µM) it was 0.194. Besides, the relative viability in experiment [3] (first compound 0.4 µM) was determined as 0.203; in experiment [3] (first compound 1.265 µM) it was 0.222; in experiment [3] (first compound 4 µM), 0.202; in experiment [4] (first compound 1 µM), 1.24; in experiment [4] (first compound 3.162 µM), 1.03; in experiment [4] (first compound 10 µM), 0.603. Also, the relative viability in experiment [4] (first compound 31.62 µM) turned out to be 1.03; in experiment [4] (first compound 100 µM), 0.755.
